Assays:
Type in all cases: in vivo
[1] = tested on: ragweed (common ragweed, Ambrosia elatior); test: Test A preemergence; conditions: Ambrosia artemisiifolia, pre-emergence, 240 h, Preemergence; for pest or weed control at 31 g/ha: 31 g ai/ha, 0 to 100 scale where 0 is no effect and 100 is complete control, read-out: Ragweed plant response rating; for pest or weed control at 125 g/ha: 125 g ai/ha, 0 to 100 scale (0 no effect, 100 complete control), read-out: Plant response rating, Ragweed
Method in brief: (§1)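 In a loam soil and sand blend, planted seeds got a preemergence directed soil spray, and young plants at the one- to two-leaf stage, 2–10 cm high, got a postemergence application; ~10 d greenhouse hold; injury rated visually, 0 = none, 100 = complete control.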

[2] = tested on: ryegrass, Italian (Italian ryegrass, Lolium multiflorum); test: Test A preemergence; conditions: Lolium multiflorum, pre-emergence, 240 h, Preemergence; for pest or weed control at 31 g/ha: 31 g ai/ha, 0 to 100 scale where 0 is no effect and 100 is complete control, read-out: Ryegrass, Italian plant response rating; for pest or weed control at 125 g/ha: 125 g ai/ha, 0 to 100 scale (0 no effect, 100 complete control), read-out: Plant response rating, Ryegrass, Italian
Method in brief: as §1

[3] = tested on: barnyardgrass (Echinochloa crus-galli); test: Test A preemergence; conditions: Echinochloa crus-galli, pre-emergence, 240 h, Preemergence; for pest or weed control at 31 g/ha: 31 g ai/ha, 0 to 100 scale where 0 is no effect and 100 is complete control, read-out: Barnyardgrass plant response rating; for pest or weed control at 125 g/ha: 125 g ai/ha, 0 to 100 scale (0 no effect, 100 complete control), read-out: Plant response rating, Barnyardgrass
Method in brief: as §1

[4] = tested on: pigweed (Amaranthus retroflexus); test: Test A preemergence; conditions: Amaranthus retroflexus, pre-emergence, 240 h, Preemergence; for pest or weed control at 31 g/ha: 31 g ai/ha, 0 to 100 scale where 0 is no effect and 100 is complete control, read-out: Pigweed plant response rating; for pest or weed control at 125 g/ha: 125 g ai/ha, 0 to 100 scale (0 no effect, 100 complete control), read-out: Plant response rating, Pigweed
Kochia (Kochia scoparia) [5] = test: Test A preemergence; conditions: Bassia scoparia, pre-emergence, 240 h, Preemergence; for pest or weed control at 31 g/ha: 31 g ai/ha, 0 to 100 scale where 0 is no effect and 100 is complete control, read-out: Kochia plant response rating; for pest or weed control at 125 g/ha: 125 g ai/ha, 0 to 100 scale (0 no effect, 100 complete control), read-out: Plant response rating, Kochia
Method in brief: as §1

[6] = tested on: giant foxtail (Setaria faberii); test: Test A preemergence; conditions: Setaria faberi, pre-emergence, 240 h, Preemergence; for pest or weed control at 31 g/ha: 31 g ai/ha, 0 to 100 scale where 0 is no effect and 100 is complete control, read-out: Foxtail, Giant plant response rating; for pest or weed control at 125 g/ha: 125 g ai/ha, 0 to 100 scale (0 no effect, 100 complete control), read-out: Plant response rating, Foxtail, Giant
Method in brief: as §1

[7] = tested on: blackgrass (Alopecurus myosuroides); test: Test A postemergence; conditions: Alopecurus myosuroides, post-emergence, 240 h, Postemergence, read-out: Blackgrass plant response rating (0 to 100 scale); for pest or weed control at 125 g/ha: 125 g ai/ha, visual rating about 10 d after treatment; for pest or weed control at 31 g/ha: 31 g ai/ha, 0 is no effect, 100 is complete control
Method in brief: as §1

[8] = tested on: ragweed (common ragweed, Ambrosia elatior); test: Test A postemergence; conditions: Ambrosia artemisiifolia, post-emergence, 240 h, Postemergence, read-out: Ragweed plant response rating (0 to 100 scale); for pest or weed control at 125 g/ha: 125 g ai/ha, visual rating about 10 d after treatment; for pest or weed control at 31 g/ha: 31 g ai/ha, 0 is no effect, 100 is complete control
Method in brief: as §1

[9] = tested on: Galium (catchweed bedstraw, Galium aparine); test: Test A postemergence; conditions: Galium, post-emergence, 240 h, Postemergence, read-out: Galium plant response rating (0 to 100 scale); for pest or weed control at 125 g/ha: 125 g ai/ha, visual rating about 10 d after treatment; for pest or weed control at 31 g/ha: 31 g ai/ha, 0 is no effect, 100 is complete control
Method in brief: as §1

[10] = tested on: ryegrass, Italian (Italian ryegrass, Lolium multiflorum); test: Test A postemergence; conditions: Lolium multiflorum, post-emergence, 240 h, Postemergence, read-out: Ryegrass, Italian plant response rating (0 to 100 scale); for pest or weed control at 125 g/ha: 125 g ai/ha, visual rating about 10 d after treatment; for pest or weed control at 31 g/ha: 31 g ai/ha, 0 is no effect, 100 is complete control
Method in brief: as §1

[11] = tested on: barnyardgrass (Echinochloa crus-galli); test: Test A postemergence; conditions: Echinochloa crus-galli, post-emergence, 240 h, Postemergence; for pest or weed control at 125 g/ha: 125 g ai/ha, visual rating about 10 d after treatment, read-out: Barnyardgrass plant response rating (0 to 100 scale, 0 no effect, 100 complete control); for pest or weed control at 31 g/ha: 31 g ai/ha, 0 is no effect, 100 is complete control, read-out: Barnyardgrass plant response rating (0 to 100 scale)
Method in brief: as §1

[12] = tested on: pigweed (Amaranthus retroflexus); test: Test A postemergence; conditions: Amaranthus retroflexus, post-emergence, 240 h, Postemergence, read-out: Pigweed plant response rating (0 to 100 scale); for pest or weed control at 125 g/ha: 125 g ai/ha, visual rating about 10 d after treatment; for pest or weed control at 31 g/ha: 31 g ai/ha, 0 is no effect, 100 is complete control
Method in brief: as §1

Kochia (Kochia scoparia) [13] = test: Test A postemergence; conditions: Bassia scoparia, post-emergence, 240 h, Postemergence, read-out: Kochia plant response rating (0 to 100 scale); for pest or weed control at 125 g/ha: 125 g ai/ha, visual rating about 10 d after treatment; for pest or weed control at 31 g/ha: 31 g ai/ha, 0 is no effect, 100 is complete control
Method in brief: as §1

[14] = tested on: wheat (Triticum aestivum); test: Test A postemergence; conditions: Triticum aestivum, post-emergence, 240 h, Postemergence, read-out: Wheat plant response rating (0 to 100 scale); for plant injury at 125 g/ha: 125 g ai/ha, visual rating about 10 d after treatment; for plant injury at 31 g/ha: 31 g ai/ha, 0 is no effect, 100 is complete control
Method in brief: as §1

corn (Zea mays) = test: Test A postemergence; conditions: Zea mays, post-emergence, 240 h, Postemergence, read-out: Corn plant response rating (0 to 100 scale); for plant injury at 125 g/ha: 125 g ai/ha, visual rating about 10 d after treatment; for plant injury at 31 g/ha: 31 g ai/ha, 0 is no effect, 100 is complete control
Method in brief: as §1

[15] = tested on: giant foxtail (Setaria faberii); test: Test A postemergence; conditions: Setaria faberi, post-emergence, 240 h, Postemergence, read-out: Foxtail, Giant plant response rating (0 to 100 scale); for pest or weed control at 125 g/ha: 125 g ai/ha, visual rating about 10 d after treatment; for pest or weed control at 31 g/ha: 31 g ai/ha, 0 is no effect, 100 is complete control
Method in brief: as §1

[16] = tested on: ducksalad (Heteranthera limosa); test: Test B flooded paddy test; conditions: Heteranthera limosa, 360 h, Flood, 250 g ai/ha; visually evaluated after 13 to 15 d; read-out: Plant response rating, Ducksalad (0 to 100 scale where 0 is no effect and 100 is complete control)
Method in brief: (§2)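 Greenhouse paddy pots with 2-leaf stage plants received compound by direct addition to floodwater 3 cm deep, kept at that level. Scored visually at 13–15 d versus controls (0 no effect; 100 complete control).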

rice (Oryra sativa) = test: Test B flooded paddy test; conditions: Oryza sativa, 360 h, Flood, 250 g ai/ha; visually evaluated after 13 to 15 d; read-out: Plant response rating, Rice (0 to 100 scale where 0 is no effect and 100 is complete control)
Method in brief: as §2

[17] = tested on: barnyardgrass (Echinochloa crus-galli); test: Test B flooded paddy test; conditions: Echinochloa crus-galli, 360 h, Flood, 250 g ai/ha; visually evaluated after 13 to 15 d; read-out: Plant response rating, Barnyardgrass (0 to 100 scale where 0 is no effect and 100 is complete control)
Method in brief: as §2

[18] = tested on: sedge, umbrella (small-flower umbrella sedge, Cyperus difformis); test: Test B flooded paddy test; conditions: Cyperus difformis, 360 h, Flood, 250 g ai/ha; visually evaluated after 13 to 15 d; read-out: Plant response rating, Sedge, Umbrella (0 to 100 scale where 0 is no effect and 100 is complete control)
Method in brief: as §2

CC(C)Oc1ccc([C@H]2CN(C)C(=O)[C@@H]2C(=O)Nc2ccccc2F)cc1F [Compound 1333]
30%: pest or weed control at 125 g/ha (Kochia (Kochia scoparia) [5])
45%: pest or weed control at 250 g/ha [17]
60%: pest or weed control at 125 g/ha [15]
70%: pest or weed control at 125 g/ha [3] | pest or weed control at 125 g/ha [11] | pest or weed control at 250 g/ha [18]
10%: pest or weed control at 125 g/ha [12]
80%: pest or weed control at 250 g/ha [16]
90%: pest or weed control at 31 g/ha [6] | pest or weed control at 125 g/ha [6]
0%: pest or weed control at 31 g/ha [1] | pest or weed control at 125 g/ha [1] | pest or weed control at 31 g/ha [2] | pest or weed control at 125 g/ha [2] | pest or weed control at 31 g/ha [4] | pest or weed control at 125 g/ha [4] | pest or weed control at 31 g/ha (Kochia (Kochia scoparia) [5]) | pest or weed control at 125 g/ha [7] | pest or weed control at 31 g/ha [7] | pest or weed control at 125 g/ha [8] | pest or weed control at 31 g/ha [8] | pest or weed control at 125 g/ha [9] | pest or weed control at 31 g/ha [9] | pest or weed control at 125 g/ha [10] | pest or weed control at 31 g/ha [10] | pest or weed control at 31 g/ha [11] | pest or weed control at 31 g/ha [12] | pest or weed control at 125 g/ha (Kochia (Kochia scoparia) [13]) | pest or weed control at 31 g/ha (Kochia (Kochia scoparia) [13]) | plant injury at 125 g/ha [14] | plant injury at 31 g/ha [14] | plant injury at 125 g/ha (corn (Zea mays)) | plant injury at 31 g/ha (corn (Zea mays)) | pest or weed control at 31 g/ha [15]
40%: pest or weed control at 31 g/ha [3]
20%: pest or weed control at 250 g/ha (rice (Oryra sativa))

COc1c([C@H]2CN(C)C(=O)[C@@H]2C(=O)Nc2cccc(F)c2F)cccc1C(F)(F)F [Compound 1339]
20%: pest or weed control at 125 g/ha [2] | pest or weed control at 125 g/ha [8] | pest or weed control at 31 g/ha [12] | pest or weed control at 125 g/ha (Kochia (Kochia scoparia) [13])
0%: pest or weed control at 31 g/ha [1] | pest or weed control at 125 g/ha [1] | pest or weed control at 31 g/ha [2] | pest or weed control at 31 g/ha [4] | pest or weed control at 125 g/ha [4] | pest or weed control at 31 g/ha (Kochia (Kochia scoparia) [5]) | pest or weed control at 125 g/ha [7] | pest or weed control at 31 g/ha [7] | pest or weed control at 31 g/ha [8] | pest or weed control at 125 g/ha [10] | pest or weed control at 31 g/ha [10] | pest or weed control at 31 g/ha (Kochia (Kochia scoparia) [13]) | plant injury at 125 g/ha [14] | plant injury at 31 g/ha [14] | plant injury at 125 g/ha (corn (Zea mays)) | plant injury at 31 g/ha (corn (Zea mays)) | pest or weed control at 250 g/ha [18]
60%: pest or weed control at 250 g/ha (rice (Oryra sativa))
70%: pest or weed control at 31 g/ha [11] | pest or weed control at 31 g/ha [15]
30%: pest or weed control at 31 g/ha [9] | pest or weed control at 125 g/ha [12]
95%: pest or weed control at 250 g/ha [17]
80%: pest or weed control at 31 g/ha [6] | pest or weed control at 125 g/ha [15]
50%: pest or weed control at 125 g/ha (Kochia (Kochia scoparia) [5]) | pest or weed control at 125 g/ha [9]
90%: pest or weed control at 31 g/ha [3] | pest or weed control at 125 g/ha [3] | pest or weed control at 125 g/ha [6] | pest or weed control at 125 g/ha [11]
100%: pest or weed control at 250 g/ha [16]

Reference: patent US12077503B2, “Substituted cyclic amides and their use as herbicides” (FMC CORPORATION, priority 2015, dated 2024)
